According to ChEMBL document CHEMBL4706511, “Structure-based design, synthesis and bioactivity evaluation of macrocyclic inhibitors of mutant isocitrate dehydrogenase 2 (IDH2) displaying activity in acute myeloid leukemia cells” (Eur J Med Chem, 2020):
Substitutions are numbered along the chain they refer to.

Key:
TF-1 = assay: Cytotoxicity aganist human TF-1 cells harboring IDH2 mutant; format: functional, cell-based
[1] = target: Isocitrate dehydrogenase [NADP], mitochondrial (Homo sapiens, UniProt P48735, R140Q); assay: Inhibition of IDH2 R140Q mutant (unknown origin) assessed as reduction in NADPH consumption using alpha-ketoglutarate and NADPH as substrate preincubated with enzyme for 15 mins followed by substrate addition by fluorescence based assay
[2] = target: T1, Isocitrate dehydrogenase [NADP], mitochondrial (Homo sapiens, UniProt P48735); assay: Inhibition of wild type IDH2 (unknown origin) assessed as reduction in NADPH production using sodium(D)-isocitrate and NADP as substrate preincubated with enzyme for 15 mins followed by substrate addition by fluorescence based assay
T1 sequence (P48735 whole entry): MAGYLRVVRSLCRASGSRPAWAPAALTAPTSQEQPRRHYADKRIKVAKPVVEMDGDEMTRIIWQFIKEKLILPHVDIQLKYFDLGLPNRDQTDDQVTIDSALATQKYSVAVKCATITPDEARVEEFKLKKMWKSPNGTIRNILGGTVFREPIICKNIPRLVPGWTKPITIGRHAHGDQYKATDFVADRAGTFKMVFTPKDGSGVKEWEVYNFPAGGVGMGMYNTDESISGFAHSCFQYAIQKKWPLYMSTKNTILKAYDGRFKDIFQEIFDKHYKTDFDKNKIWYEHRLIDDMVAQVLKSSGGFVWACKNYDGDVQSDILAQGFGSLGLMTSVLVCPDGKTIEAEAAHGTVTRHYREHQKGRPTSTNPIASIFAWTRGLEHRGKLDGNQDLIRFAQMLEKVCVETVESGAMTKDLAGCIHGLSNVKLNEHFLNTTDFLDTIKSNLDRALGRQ

[3] = target: Isocitrate dehydrogenase [NADP], mitochondrial (Homo sapiens, UniProt P48735, R172K); assay: Inhibition of IDH2 R172K mutant (unknown origin) assessed as reduction in NADPH consumption using alpha-ketoglutarate and NADPH as substrate preincubated with enzyme for 15 mins followed by substrate addition by fluorescence based assay
[4] = Metabolic stability in human liver microsomes assessed as parent compound remaining at 100 ug/ml measured after 45 mins in presence of NADPH by LC-MS analysis; format: ADME, Microsome; settings: at 100 µg/mL, read-out: Stabilty
[5] = Metabolic stability in human liver microsomes assessed as parent compound remaining at 100 ug/ml measured after 90 mins in presence of NADPH by LC-MS analysis; format: ADME, Microsome; settings: at 100 µg/mL, read-out: Stabilty
[6] = Metabolic stability in human liver microsomes assessed as parent compound remaining at 100 ug/ml measured after 15 mins in presence of NADPH by LC-MS analysis; format: ADME, Microsome; settings: at 100 µg/mL, read-out: Stabilty
[7] = Cytotoxicity aganist human PBMC cells; format: cell-based
WI-38 = assay: Cytotoxicity aganist human WI-38 cells; format: cell-based
[8] = Cmax in Sprague-Dawley rat at 1 mg/kg, iv measured up to 24 hrs by LC-MS/MS analysis; format: ADME, organism-based; set-up: route intravenous, dose 1 mg/kg, time <=24; settings: in vivo
[9] = Oral bioavailability Sprague-Dawley rat at 10 mg/kg measured up to 24 hrs by LC-MS/MS analysis; format: ADME, organism-based; settings: in vivo
[10] = Half life in Sprague-Dawley rat at 10 mg/kg, po measured up to 24 hrs by LC-MS/MS analysis; format: ADME, organism-based; settings: in vivo
[11] = MRT (0 to t) in Sprague-Dawley rat at 1 mg/kg, iv measured upto 24 hrs by LC-MS/MS analysis; format: ADME, organism-based; settings: in vivo
[12] = Tmax in Sprague-Dawley rat at 10 mg/kg, po measured up to 24 hrs by LC-MS/MS analysis; format: ADME, organism-based; settings: in vivo
[13] = AUC (0 to infinity) in Sprague-Dawley rat at 1 mg/kg, iv measured up to 24 hrs by LC-MS/MS analysis; format: ADME, organism-based; set-up: route intravenous, dose 1 mg/kg, time <=24; settings: in vivo
[14] = Half life in Sprague-Dawley rat at 1 mg/kg, iv measured up to 24 hrs by LC-MS/MS analysis; format: ADME, organism-based; settings: in vivo
[15] = AUC (0 to infinity) in Sprague-Dawley rat at 10 mg/kg, po measured up to 24 hrs by LC-MS/MS analysis; format: ADME, organism-based; set-up: route oral, dose 10 mg/kg, time <=24; settings: in vivo
[16] = AUC (0 to t) in Sprague-Dawley rat at 1 mg/kg, iv measured up to 24 hrs by LC-MS/MS analysis; format: ADME, organism-based; set-up: route intravenous, dose 1 mg/kg, time <=24; settings: in vivo
[17] = Cmax in Sprague-Dawley rat at 10 mg/kg, po measured up to 24 hrs by LC-MS/MS analysis; format: ADME, organism-based; set-up: route oral, dose 10 mg/kg, time <=24; settings: in vivo
[18] = AUC (0 to t) in Sprague-Dawley rat at 10 mg/kg, po measured up to 24 hrs by LC-MS/MS analysis; format: ADME, organism-based; set-up: route oral, dose 10 mg/kg, time <=24; settings: in vivo
[19] = MRT (0 to t) in Sprague-Dawley rat at 10 mg/kg, po measured upto 24 hrs by LC-MS/MS analysis; format: ADME, organism-based; settings: in vivo
[20] = tested on: T2, Isocitrate dehydrogenase [NADP], mitochondrial (Homo sapiens), P48735 [R140Q]; assay: Potency index, ratio of AG-221 IC50 to test compound IC50 for IDH2 R140Q mutant (unknown origin) assessed as reduction in NADPH consumption using alpha-ketoglutarate and NADPH as substrate preincubated with enzyme for 15 mins followed by substrate addition by fluorescence based assay
T2 sequence (whole entry): T1 sequence (P48735 whole entry) with R140Q

Sequence of Isocitrate dehydrogenase [NADP], mitochondrial (Homo sapiens, UniProt P48735, R172K) (P48735 40-452 R172K limits assumed): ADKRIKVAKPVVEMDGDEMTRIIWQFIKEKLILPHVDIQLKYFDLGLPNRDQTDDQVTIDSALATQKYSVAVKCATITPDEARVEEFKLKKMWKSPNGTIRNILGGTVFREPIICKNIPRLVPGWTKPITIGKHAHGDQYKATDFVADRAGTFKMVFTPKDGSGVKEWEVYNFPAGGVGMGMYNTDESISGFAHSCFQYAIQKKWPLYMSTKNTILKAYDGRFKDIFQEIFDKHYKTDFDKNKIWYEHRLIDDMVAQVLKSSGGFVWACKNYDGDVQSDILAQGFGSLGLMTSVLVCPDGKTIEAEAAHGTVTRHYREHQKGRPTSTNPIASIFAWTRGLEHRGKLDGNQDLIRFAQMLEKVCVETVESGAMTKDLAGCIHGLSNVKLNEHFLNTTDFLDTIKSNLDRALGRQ
Sequence of Isocitrate dehydrogenase [NADP], mitochondrial (Homo sapiens, UniProt P48735, R140Q) (P48735 40-452 R140Q limits assumed): as the sequence (P48735 40-452 R172K limits assumed) above, with R101Q, K133R counted along it

| Structure (SMILES) | IC50 [1] [nM] | IC50 [2] [nM] | IC50 [3] [nM] | remaining at 0.75 h, 100 ug/ml [4] [%] | remaining at 1.5 h, 100 ug/ml [5] [%] | remaining at 0.25 h, 100 ug/ml [6] [%] | IC50 (TF-1) [nM] | other results |
| --- | --- | --- | --- | --- | --- | --- | --- | --- |
| FC(F)(F)c1cc2cc(c1)Nc1nc(nc(-c3cccc(C(F)(F)F)n3)n1)NCCCCC2 | 1240 | > 20000 | > 10000 |  |  |  | > 10000 |  |
| FC(F)(F)c1cc2cc(c1)Nc1nc(nc(-c3cccc(C(F)(F)F)n3)n1)NCC/C=C/C2 | 683 | > 20000 | > 10000 |  |  |  | > 10000 |  |
| FC(F)(F)c1cc2cc(c1)OCCCCCCNc1nc(nc(-c3cccc(C(F)(F)F)n3)n1)N2 | 133 | > 20000 | 45.5 | 97 | 85 | 93 |  |  |
| C=CCOC(C)(C)CNc1nc(Nc2ccccc2)nc(-c2cccc(C(F)(F)F)n2)n1 | 46 | > 20000 | 167 |  |  |  | > 10000 |  |
| CS(=O)(=O)O.FC(F)(F)c1cc2cc(c1)Nc1nc(nc(-c3cccc(C(F)(F)F)n3)n1)NCCCCCC2 | 60.9 |  | 78.5 |  |  |  |  | Cmax [8]: 1255.13 ng/mL; bioavailability [9]: 19.8%; half-life [10]: 6.63 h; MRT(t) [11]: 2.4 h; Tmax [12]: 1.33 h; AUC [13]: 1372.5 ng·h/mL; t1/2 [14]: 0.22 h; AUC(0-inf) [15]: 2750 ng·h/mL; AUC(0-t) at 24 h [16]: 1370 ng·h/mL; Cmax [17]: 237 ng/mL; AUC(0-t) at 24 h [18]: 2700 ng·h/mL; MRT last at 24 h [19]: 6.03 h |
| FC(F)(F)c1cc2cc(c1)Nc1nc(nc(-c3cccc(C(F)(F)F)n3)n1)NCCCCCC2 [listing 1 of 2 here] |  |  |  |  |  |  |  | Ratio IC50 [20]: 6 |
| FC(F)(F)c1cc2cc(c1)Nc1nc(nc(-c3cccc(C(F)(F)F)n3)n1)NCCOCCCC2 | 64.4 | > 20000 | 517 |  |  |  |  | IC50 [7]: 10000 nM; IC50 (WI-38): 10000 nM |
| CC(C)(O)CNc1nc(Nc2ccncc2)nc(-c2cccc(C(F)(F)F)n2)n1 | 663 | > 20000 | > 10000 |  |  |  | > 10000 |  |
| O=C1NCCCCNc2nc(nc(-c3cccc(C(F)(F)F)n3)n2)Nc2cc1cc(C(F)(F)F)c2 | 699 | > 20000 | > 10000 |  |  |  |  |  |

The next lines start with results.

| IC50 [1] [nM] | IC50 [2] [nM] | IC50 [3] [nM] | remaining at 0.75 h, 100 ug/ml [4] [%] | remaining at 1.5 h, 100 ug/ml [5] [%] | remaining at 0.25 h, 100 ug/ml [6] [%] | Structure (SMILES) | IC50 (TF-1) [nM] | other results |
| --- | --- | --- | --- | --- | --- | --- | --- | --- |
| 26 | > 20000 | 119 | 81 | 81 | 86 | CC(C)(O)CNc1nc(Nc2cccc(C(F)(F)F)c2)nc(-c2cccc(C(F)(F)F)n2)n1 | > 10000 |  |
| 18.4 | > 20000 | 1570 | 66 | 64 | 89 | FC(F)(F)c1cc2cc(c1)OC/C=C\CCNc1nc(nc(-c3cccc(C(F)(F)F)n3)n1)N2 |  |  |
| 38.5 | > 20000 | 9.6 |  |  |  | CC1(C)CNc2nc(nc(-c3cccc(C(F)(F)F)n3)n2)Nc2cc(cc(C(F)(F)F)c2)CCCCO1 |  | IC50 [7]: 10000 nM; IC50 (WI-38): 10000 nM |
| 39.9 | > 20000 | 210 |  |  |  | FC(F)(F)c1cc2cc(c1)Nc1nc(nc(-c3cccc(C(F)(F)F)n3)n1)NCCOC/C=C\C2 |  | IC50 [7]: 10000 nM; IC50 (WI-38): 10000 nM |
| 13.8 | 14100 | 17.4 | 91 | 90 | > 99 | FC(F)(F)c1cc2cc(c1)Nc1nc(nc(-c3cccc(C(F)(F)F)n3)n1)NCCC/C=C/C2 |  | Ratio IC50 [20]: 3 |
| 6.1 | > 20000 | 219 | 94 | 85 | 95 | FC(F)(F)c1cc2cc(c1)Nc1nc(nc(-c3cccc(C(F)(F)F)n3)n1)NCCCCCC2 [listing 2 of 2 here] | > 10000 |  |
| 37.2 | > 20000 | 131 | 75 | 72 | > 99 | FC(F)(F)c1cc2cc(c1)Nc1nc(nc(-c3cccc(C(F)(F)F)n3)n1)NCCCCCCCC2 | > 10000 |  |
| 32.8 | > 20000 | 15.5 |  |  |  | C=CCOC(C)(C)CNc1nc(Nc2cccc(C(F)(F)F)c2)nc(-c2cccc(C(F)(F)F)n2)n1 |  |  |
